According to US6875760B2 (Novo Nordisk A/S, priority 1999, dated 2005):

Target: T1, human glucagon receptor (Homo sapiens, UniProt P47871)
T1 construct: expressed in transfected cells; host or cells: BHK (baby hamster kidney) cells
Assay: Glucagon Binding Assay (III)
Conditions: BHK cell membranes, WGA SPA beads, 125I-glucagon; read-out: Glu Bd Assay (III) IC50
How it was run: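 Non-specific binding was set with 500 nM glucagon in this SPA-type binding assay using WGA beads. The receptor source was a membrane preparation, kept on ice or at 4 °C, from BHK cells transfected with the human receptor. Scintillation counts were taken after 4 hours of shaking and 8–48 hours of settling.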

T1 sequence (P47871 26-477): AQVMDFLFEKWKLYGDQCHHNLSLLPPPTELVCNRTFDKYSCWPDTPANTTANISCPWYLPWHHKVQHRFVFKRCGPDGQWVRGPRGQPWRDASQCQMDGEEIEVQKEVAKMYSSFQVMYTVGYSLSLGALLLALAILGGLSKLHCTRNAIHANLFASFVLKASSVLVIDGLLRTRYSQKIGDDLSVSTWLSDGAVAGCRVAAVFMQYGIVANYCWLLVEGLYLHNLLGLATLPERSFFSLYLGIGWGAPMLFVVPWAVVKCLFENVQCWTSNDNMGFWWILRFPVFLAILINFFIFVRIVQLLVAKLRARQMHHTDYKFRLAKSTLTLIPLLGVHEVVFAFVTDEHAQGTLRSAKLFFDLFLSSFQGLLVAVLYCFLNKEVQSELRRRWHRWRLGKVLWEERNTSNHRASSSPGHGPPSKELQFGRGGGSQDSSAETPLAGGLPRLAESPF

For `Cc1ccc(NC(=O)N(Cc2ccc(C(=O)Nc3nn[nH]n3)cc2)c2ccc(C3CCCCC3)cc2)cc1Cl` [Example 327, 4-[3-(3-Chloro-4-methylphenyl)-1-(4-cyclohexylphenyl)ureidomethyl]-N-(2H-tetrazol-5-yl)benzamide], which IC50 is on record?
The IC50 was 0.015 µM.

With `O=C(Nc1nn[nH]n1)c1ccc(CN(C(=O)Nc2ccc(F)c(C(F)(F)F)c2)c2ccc(C3=CCCCC3)cc2)cc1` [Example 328, 4-[1-(4-Cyclohex-1-enylphenyl)-3-(4-fluoro-3-trifluoromethylphenyl)ureidomethyl]-N-(2H-tetrazol-5-yl)benzamide] as the molecule, how does the IC50 read?
Its IC50 is 0.014 µM.

`CC(C)(C)c1ccc(N(Cc2ccc(C(=O)Nc3nn[nH]n3)cc2)C(=O)Nc2ccccc2)cc1` [Example 329] was tested. Which IC50 did it give?
Its IC50 is 0.278 µM.

With `CC(C)(C)c1ccc(N(Cc2ccc(C(=O)Nc3nn[nH]n3)cc2)C(=O)Nc2cc(C(F)(F)F)cc(C(F)(F)F)c2)cc1` [Example 330, 4-[3-(3,5-Bis(trifluoromethyl)phenyl)-1-(4-tert-butylphenyl)ureidomethyl]-N-(2H-tetrazol-5-yl)benzamide] as the molecule, how does the IC50 read?
Its IC50 is 0.044 µM.

`CC(C)(C)c1ccc(N(Cc2ccc(C(=O)Nc3nn[nH]n3)cc2)C(=O)Nc2ccc(Cl)c(C(F)(F)F)c2)cc1` [Example 331, 4-[1-(4-tert-Butylphenyl)-3-(4-chloro-3-trifluoromethylphenyl)ureidomethyl]-N-(2H-tetrazol-5-yl)benzamide] was tested. Which IC50 did it give?
Its IC50 is 0.03 µM.

Which IC50 does the source give for `CC(C)(C)c1ccc(N(Cc2ccc(C(=O)Nc3nn[nH]n3)cc2)C(=O)Nc2ccc(SC(F)(F)F)cc2)cc1` [Example 332, 4-[1-(4-tert-Butylphenyl)-3-(4-trifluoromethylsulfanylphenyl)ureidomethyl]-N-(2H-tetrazol-5-yl)benzamide] here?
The IC50 was 0.02 µM.

For `CC(C)(C)c1ccc(N(Cc2ccc(C(=O)Nc3nn[nH]n3)cc2)C(=O)Nc2cc(Cl)cc(Cl)c2)cc1` [Example 333, 4-[1-(4-tert-Butylphenyl)-3-(3,5-dichlorophenyl)ureidomethyl]-N-(2H-tetrazol-5-yl)benzamide], which IC50 is on record?
The IC50 was 0.026 µM.

`CC(C)(C)[C@H]1CC[C@H](N(Cc2ccc(C(=O)Nc3nn[nH]n3)cc2)C(=O)Nc2ccc(OCC3CC3)cc2C(F)(F)F)CC1` [Example 334, 4-[1-(trans-4-tert-Butylcyclohexyl)-3-(4-cyclopropylmethoxy-2-trifluoromethylphenyl)ureidomethyl]-N-(2H-tetrazol-5-yl)benzamide] was tested. Which IC50 did it give?
Its IC50 is 0.288 µM.

With `O=C(Nc1nn[nH]n1)c1ccc(CN(C(=O)Nc2cc(Cl)sc2Cl)c2ccc(C3CCCCC3)cc2)cc1` [Example 335, 4-[1-(4-Cyclohexylphenyl)-3-(2,5-dichlorothiophen-3-yl)ureidomethyl]-N-(2H-tetrazol-5-yl)benzamide] as the molecule, how does the IC50 read?
Its IC50 is 1.09 µM.

For `CC(NC(=O)N(Cc1ccc(C(=O)Nc2nn[nH]n2)cc1)c1ccc(C2CCCCC2)cc1)c1ccc(Cl)cc1` (stereo not drawn) [Example 336, 4-[3-[1-(4-Chlorophenyl)ethyl]-1-(4-cyclohexylphenyl)ureidomethyl]-N-(2H-tetrazol-5-yl)benzamide], which IC50 is on record?
The IC50 was 0.058 µM.

How did the IC50 turn out when `COc1ccc(NC(=O)N(Cc2ccc(C(=O)Nc3nn[nH]n3)cc2)c2ccc(C(C)(C)C)cc2)cc1S(C)(=O)=O` [Example 339, 4-[1-(4-tert-Butylphenyl)-3-(3-methylsulfonyl-4-methoxyphenyl)ureidomethyl]-N-(2H-tetrazol-5-yl)benzamide] was run?
Its IC50 is 0.797 µM.

For `COc1ccc(NC(=O)N(Cc2ccc(C(=O)Nc3nn[nH]n3)cc2)c2ccc(C3CCCCC3)cc2)cc1S(C)(=O)=O` [Example 340, 4-[1-(4-Cyclohexylphenyl)-3-(3-methylsulfonyl-4-methoxyphenyl)ureidomethyl]-N-(2H-tetrazol-5-yl)benzamide], which IC50 is on record?
Its IC50 is 0.179 µM.

How did the IC50 turn out when `O=C(Nc1nn[nH]n1)c1ccc(CN(C(=O)Nc2nc3ccc(OC(F)(F)F)cc3s2)c2ccc(C3CCCCC3)cc2)cc1` [Example 341, 4-[1-(4-Cyclohexylphenyl)-3-(6-trifluoromethoxybenzothiazol-2-yl)ureidomethyl]-N-(2H-tetrazol-5-yl)benzamide] was run?
Its IC50 is 0.056 µM.

How did the IC50 turn out when `O=C(Nc1nn[nH]n1)c1ccc(CN(C(=O)Nc2nc3ccc([N+](=O)[O-])cc3s2)c2ccc(C3CCCCC3)cc2)cc1` [Example 342, 4-[1-(4-Cyclohexylphenyl)-3-(6-nitrobenzothiazol-2-yl)ureidomethyl]-N-(2H-tetrazol-5-yl)benzamide] was run?
The IC50 was 0.376 µM.

With `CCOC(=O)c1ccc2nc(NC(=O)N(Cc3ccc(C(=O)Nc4nn[nH]n4)cc3)c3ccc(C4CCCCC4)cc3)sc2c1` [Example 343, 2-{3-(4-Cyclohexylphenyl)-3-[4-(2H-tetrazol-5-ylcarbamoyl)benzyl]ureido}benzothiazole-6-carboxylic acid ethyl ester] as the molecule, how does the IC50 read?
Its IC50 is 0.099 µM.

`O=C(Nc1nn[nH]n1)c1ccc(CN(C(=O)Nc2cccc(OC(F)(F)F)c2)c2ccc(C3CCCCC3)cc2)cc1` [Example 344, 4-[1-(4-Cyclohexylphenyl)-3-(3-trifluoromethoxyphenyl)ureidomethyl]-N-(2H-tetrazol-5-yl)benzamide] was tested. Which IC50 did it give?
The IC50 was 0.016 µM.

With `O=C(Nc1nn[nH]n1)c1ccc(CN(C(=O)NCc2ccccc2Br)c2ccc(C3CCCCC3)cc2)cc1` [Example 345, 4-[3-(2-Bromobenzyl)-1-(4-cyclohexylphenyl)ureidomethyl]-N-(2H-tetrazol-5-yl)benzamide] as the molecule, how does the IC50 read?
Its IC50 is 0.064 µM.

With `O=C(Nc1nn[nH]n1)c1ccc(CN(C(=O)Nc2ccc(Cl)c(Cl)c2)c2ccc(C3CCCCC3)cc2)cc1` [Example 346, 4-[1-(4-Cyclohexylphenyl)-3-(3,4-dichlorophenyl)ureidomethyl]-N-(2H-tetrazol-5-yl)benzamide] as the molecule, how does the IC50 read?
Its IC50 is 0.025 µM.

For `O=C(Nc1nn[nH]n1)c1ccc(CN(C(=O)NCc2ccc(OC(F)(F)F)cc2)c2ccc(C3CCCCC3)cc2)cc1` [Example 347, 4-[1-(4-Cyclohexylphenyl)-3-(4-trifluoromethoxybenzyl)ureidomethyl]-N-(2H-tetrazol-5-yl)benzamide], which IC50 is on record?
Its IC50 is 0.079 µM.

Which IC50 does the source give for `O=C(Nc1nn[nH]n1)c1ccc(CN(C(=O)NCc2ccccc2OC(F)(F)F)c2ccc(C3CCCCC3)cc2)cc1` [Example 348, 4-[1-(4-Cyclohexylphenyl)-3-(2-trifluoromethoxybenzyl)ureidomethyl]-N-(2H-tetrazol-5-yl)benzamide] here?
The IC50 was 0.073 µM.

For `O=C(Nc1nn[nH]n1)c1ccc(CN(C(=O)Nc2cccc(Br)c2)c2ccc(C3=CCCCC3)cc2)cc1` [Example 349, 4-[3-(3-Bromophenyl)-1-(4-cyclohex-1-enylphenyl)ureidomethyl]-N-(2H-tetrazol-5-yl)benzamide], which IC50 is on record?
The IC50 was 0.006 µM.

`O=C(Nc1nn[nH]n1)c1ccc(CN(C(=O)Nc2ccccc2OC(F)(F)F)c2ccc(C3CCCCC3)cc2)cc1` [Example 350, 4-[1-(4-Cyclohexylphenyl)-3-(2-trifluoromethoxyphenyl)ureidomethyl]-N-(2H-tetrazol-5-yl)benzamide] was tested. Which IC50 did it give?
Its IC50 is 0.271 µM.

`O=C(Nc1nn[nH]n1)c1ccc(CN(C(=O)Nc2ccccc2OC(F)(F)F)c2ccc(C3=CCCCC3)cc2)cc1` [Example 351, 4-[1-(4-Cyclohex-1-enylphenyl)-3-(2-trifluoromethoxyphenyl)ureidomethyl]-N-(2H-tetrazol-5-yl)benzamide] was tested. Which IC50 did it give?
Its IC50 is 0.368 µM.

`O=C(Nc1nn[nH]n1)c1ccc(CN(C(=O)Nc2cccc(OC(F)(F)F)c2)c2ccc(C3=CCCCC3)cc2)cc1` [Example 352, 4-[1-(4-Cyclohex-1-enylphenyl)-3-(3-trifluoromethoxyphenyl)ureidomethyl]-N-(2H-tetrazol-5-yl)benzamide] was tested. Which IC50 did it give?
The IC50 was 0.021 µM.
